Values after ≈ are worked out from the molar mass of the structure shown.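 Five concentrations, 48 hours, 96-well plates. GI50: concentration for 50% inhibition of growth. At the TGI there is no net growth.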
What was measured:
Test in all cases: NCI tumour cell line growth inhibition, 48 h
[1] = test system: HCT-116 colon
[2] = test system: HL-60(TB) leukemia
[3] = test system: HOP-92 NSCLC
[4] = test system: K-562 leukemia
[5] = test system: MALME-3M melanoma
[6] = test system: OVCAR-4 ovarian
[7] = test system: SK-MEL-2 melanoma
[8] = test system: SK-MEL-5 melanoma
[9] = test system: SK-OV-3 ovarian
[10] = test system: HCC-2998 colon

Structure (SMILES) | TGI [1] | TGI [2] | TGI [3] [µM] | TGI [4] | TGI [5] | TGI [6] | TGI [7] [µM] | TGI [8] | TGI [9] | TGI [10] [µM] | GI50 [4] | GI50 [1] [µg/mL] | GI50 [2] [µg/mL] | GI50 [5] [µg/mL] | GI50 [6] [µg/mL] | GI50 [8] [µg/mL] | GI50 [9] [µg/mL]
Cc1sc2ccccc2[n+]1CCC(=O)O | > 100 µM | 29.8 µM | > 100 | > 100 µM | > 100 µM | > 100 µM | > 100 | > 100 µM | > 100 µM |  |  |  |  |  |  |  | 
COc1ccc(/C=C2\N=C(c3ccccc3)N(C3Nc4cc5c(cc4S3)NC(N3C(=O)/C(=C/c4ccc(OC)cc4)N=C3c3ccccc3)S5)C2=O)cc1 (stereo not given) | > 100 µM | > 100 µM | > 100 | > 100 µM |  | > 100 µM | 97.5 | > 100 µM |  | 97.7 |  |  |  |  |  |  | 
COc1ccc2c(c1)/c(=C/c1ccc(N(C)C)cc1)c1cc(-c3ccccc3)[n+](C)n12 | 2.59 µM |  | 0.784 |  |  | 2.83 µM | 1.61 | 1.06 µM | 1.98 µM |  | 0.0487 µM |  |  |  |  |  | 
Cc1c(-c2ccccc2)c(C#N)c2nnc(C(N)=O)c(N)n12 | > 100 µM | > 100 µM |  | > 100 µM | > 100 µM | > 100 µM | > 100 | > 100 µM | > 100 µM | > 100 |  |  |  |  |  |  | 
CC(C)CNC(=O)Cn1c(-c2ccccc2)cc2ccccc21 | > 100 µM | > 100 µM |  | > 100 µM | > 100 µM | > 100 µM | > 100 | > 100 µM | > 100 µM | > 100 |  |  |  |  |  |  | 
Nc1cc(N2CCCC2)nc(=O)n1Cc1ccccc1 | > 100 µM | > 100 µM | > 100 | > 100 µM | > 100 µM | > 100 µM | > 100 | > 100 µM |  |  |  |  |  |  |  |  | 
CSc1c(C#N)c2n(c3ccccc13)c1ccccc1[n+]2C | 40.8 µM | 56.9 µM | > 100 |  | 34.6 µM | > 100 µM | 39.1 | 26.7 µM |  | 64.8 |  |  |  |  |  |  | 
CCCCOCn1c(=O)[nH]c(=O)c2cc(Br)ccc21 | > 100 µM | > 100 µM | > 100 | > 100 µM |  | > 100 µM | > 100 | > 100 µM | > 100 µM | > 100 |  |  |  |  |  |  | 
Cn1c2ccccc2c2c3c(c4c5ccccc5n(C)c4c21)C(=O)c1ccccc1C3=O | > 100 µM | > 100 µM | > 100 |  | 60 µM | > 100 µM | > 100 | > 100 µM | > 100 µM | > 100 |  |  |  |  |  |  | 
Cc1cc(C)n(CN(Cn2nc(C)cc2C)C2CCCCC2)n1 | 45.6 µM |  | 87.5 |  | 51.9 µM | 67.9 µM | 36.7 | > 100 µM | > 100 µM | 27.9 |  |  |  |  |  |  | 
CC(C)(C)OC[C@H](O)CC#N | > 100 µM | > 100 µM |  | > 100 µM | > 100 µM | > 100 µM | > 100 | > 100 µM | > 100 µM | > 100 |  |  |  |  |  |  | 
COc1cc(/C=C2/N=C(c3ccccc3)N(C3=NNC4(C(=O)N3)c3ccccc3-c3ccccc34)NC2=O)ccc1O | 47.3 µg/mL | > 150 µg/mL |  | > 150 µg/mL | 57 µg/mL | 62.1 µg/mL |  | 39.6 µg/mL | 37.8 µg/mL |  | 48.6 µg/mL | 26.1 (≈ 46.8 µM) | 51.2 (≈ 91.9 µM) | 26.5 (≈ 47.6 µM) | 27.4 (≈ 49.2 µM) | 20.3 (≈ 36.5 µM) | 19 (≈ 34.1 µM)
CC(=O)O[C@H]1C(=O)[C@@]2(C)[C@H]([C@H](OC(=O)c3ccccc3)[C@]3(O)C[C@H](OC(=O)[C@H](O)[C@@H](NC(=O)CC(C)(C)C)c4ccccc4)C(C)=C1C3(C)C)C1(OC(C)=O)CO[C@@H]1C[C@@H]2O (stereo not given in full) | > 3.34 µM |  |  | > 10 µM |  | > 10 µM | > 10 | > 10 µM | > 10 µM | 0.0418 |  |  |  |  |  |  | 
COc1ccc2nc3cc(Cl)ccc3c(NCCNCCCNC(=O)c3cc(-c4ccccc4)nc4ccccc34)c2c1 | > 100 µM | > 100 µM | > 100 | > 100 µM | > 100 µM | > 100 µM |  | > 100 µM | > 100 µM | > 100 |  |  |  |  |  |  | 
C[n+]1c2ccccc2c(C(=O)Nc2ccc(S(=O)(=O)N=C(N)N)cc2)c2ccccc21 | > 100 µM |  |  | > 100 µM | > 100 µM | > 100 µM | > 100 | > 100 µM | > 100 µM | > 100 |  |  |  |  |  |  | 
COc1cc(C2SCC(=O)N2c2ccc(Oc3ccc(Cl)cc3)c(Cl)c2)cc(OC)c1OC (stereo not given) | 35.5 µM |  |  | > 100 µM | 37.5 µM | > 100 µM | 32.2 | 32.1 µM | 33.6 µM | > 100 |  |  |  |  |  |  | 
COc1ccc(C2C(C#N)=C(S)N(C3OC(CO)C(O)C(O)C3O)C(c3ccccc3)=C2C(C)=O)cc1 (stereo not given) | > 100 µM | > 100 µM | > 100 | > 100 µM | > 100 µM |  | > 100 | 60.7 µM |  | > 100 |  |  |  |  |  |  | 
O=C(CNc1ccc(Cl)cc1Cl)NC1C=Cc2ccc(S(=O)(=O)Nc3ccc(Cl)cc3Cl)cc2C1=O (stereo not given) | > 100 µM | > 100 µM | > 100 | > 100 µM | > 100 µM |  | > 100 |  | > 100 µM | > 100 |  |  |  |  |  |  | 
Cc1ccc(N=Nc2c(C)c(C#N)c(=S)n(C3OC(CO)C(O)C(O)C3O)c2-c2ccccc2)cc1 (stereo not given) | 29 µM | > 100 µM |  | 83.3 µM | 47.7 µM | > 100 µM | 45.6 | 23.2 µM | > 100 µM | > 100 |  |  |  |  |  |  | 
COc1c(C)c(OC)c2c(c1O)[C@@H]1[C@@H]3Cc4c(OC)c(C)c(OC)c(O)c4[C@H](CNC(=O)c4cnc5ccccc5n4)N3[C@@H](C#N)[C@H](C2)N1C | > 0.1 µM | 0.00554 µM | 0.0129 | 0.018 µM | 0.00458 µM | 0.00898 µM | 0.00733 | 0.0187 µM | > 0.0445 µM |  |  |  |  |  |  |  | 
COC(=O)[C@@]12CCCC(=O)[C@@H]1[C@H]1CCCC[C@H]12 | > 100 µM |  | > 100 | > 100 µM | > 100 µM | > 100 µM | > 100 | > 100 µM | > 100 µM | > 100 |  |  |  |  |  |  | 
COc1c2cc(C(C)(C)C)cc1Cc1cccc(c1O)Cc1cc(C(C)(C)C)cc(c1OC)Cc1cccc(c1O)Cc1cc(C(C)(C)C)cc(c1OC)Cc1cccc(c1O)C2 | > 100 µM | > 100 µM | > 100 | > 100 µM | > 100 µM |  | > 100 | > 100 µM |  | > 100 |  |  |  |  |  |  | 

Reference: PubChem BioAssay (NCI)
